# ChEMBL document CHEMBL5723379, “Affinity On-target Cellular Literature for EUbOPEN Chemogenomic Library” (2024)
# pEC50, pIC50: −log10 of the molar value.
# What was measured:
# [1] = target: Nuclear receptor subfamily 1 group I member 2 (Homo sapiens, UniProt O75469); test: Affinity On-target Cellular interaction: (Reporter gene assay (HEK293T cells)) EUB0002358a NR1I2; assay type: functional, cell-based, HEK-293T; parameters: mode of action Agonist, recommended concentration 10 uM
# [2] = target: T1, Sodium- and chloride-dependent glycine transporter 1 (Homo sapiens, UniProt P48067); test: Affinity On-target Cellular interaction: (Inhibition of radiolabelled [3H]glycine uptake in human SK-N-MC cells) EUB0002599a SLC6A9; assay type: functional, cell-based; parameters: mode of action Inhibitor, recommended concentration 1 uM
# [3] = target: Poly [ADP-ribose] polymerase 1 (Homo sapiens, UniProt P09874); test: Affinity On-target Cellular interaction: (Inhibition of H2O2 induced PAR formation in Capan-1 cells) EUB0002633aCl PARP1; assay type: functional, cell-based; parameters: mode of action Inhibitor, recommended concentration 1 uM
# [4] = target: T2, Nuclear receptor ROR-gamma (Homo sapiens, UniProt P51449); test: Affinity On-target Cellular interaction: (Reporter gene assay (HEK293T cells)) EUB0001157a RORC; assay type: functional, cell-based, HEK-293T; parameters: mode of action Inverse Agonist, recommended concentration 10 uM
# T2 sequence (P51449 whole entry): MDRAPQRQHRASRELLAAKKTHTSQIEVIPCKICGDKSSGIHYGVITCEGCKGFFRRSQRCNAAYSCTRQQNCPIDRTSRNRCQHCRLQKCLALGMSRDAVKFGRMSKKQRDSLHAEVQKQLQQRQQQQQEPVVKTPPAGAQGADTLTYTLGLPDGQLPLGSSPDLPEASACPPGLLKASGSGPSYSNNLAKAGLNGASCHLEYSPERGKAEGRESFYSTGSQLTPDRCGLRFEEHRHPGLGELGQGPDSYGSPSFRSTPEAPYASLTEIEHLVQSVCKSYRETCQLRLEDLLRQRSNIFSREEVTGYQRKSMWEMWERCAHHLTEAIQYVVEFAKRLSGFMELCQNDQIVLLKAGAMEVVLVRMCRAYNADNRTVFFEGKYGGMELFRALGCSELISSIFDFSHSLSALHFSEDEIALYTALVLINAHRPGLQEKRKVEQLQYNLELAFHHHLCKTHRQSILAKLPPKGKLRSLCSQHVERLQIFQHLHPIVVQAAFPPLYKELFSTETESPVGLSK
# [5] = target: T3, Nuclear receptor ROR-beta (Homo sapiens, UniProt Q92753); test: Affinity On-target Cellular interaction: (Reporter gene assay (HEK293T cells)) EUB0001157a RORB; assay type: functional, cell-based, HEK-293T; parameters: mode of action Inverse Agonist, recommended concentration 10 uM
# T3 sequence (Q92753 whole entry): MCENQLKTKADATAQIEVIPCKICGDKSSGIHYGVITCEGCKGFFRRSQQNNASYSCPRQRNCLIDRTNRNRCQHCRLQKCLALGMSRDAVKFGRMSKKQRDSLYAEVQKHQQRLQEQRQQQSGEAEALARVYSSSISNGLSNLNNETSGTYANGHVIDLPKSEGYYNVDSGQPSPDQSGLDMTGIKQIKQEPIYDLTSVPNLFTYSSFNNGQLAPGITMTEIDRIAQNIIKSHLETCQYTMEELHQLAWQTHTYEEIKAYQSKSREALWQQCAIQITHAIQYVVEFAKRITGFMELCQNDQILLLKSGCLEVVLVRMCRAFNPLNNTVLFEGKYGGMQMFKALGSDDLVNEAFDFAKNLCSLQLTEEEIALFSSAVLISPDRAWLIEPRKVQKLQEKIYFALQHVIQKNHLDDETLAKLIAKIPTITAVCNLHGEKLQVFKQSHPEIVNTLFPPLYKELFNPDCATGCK
# [6] = target: Nuclear receptor ROR-alpha (Homo sapiens, UniProt P35398); test: Affinity On-target Cellular interaction: (Reporter gene assay (HEK293T cells)) EUB0001157a RORA; assay type: functional, cell-based, HEK-293T; parameters: mode of action Inverse Agonist, recommended concentration 10 uM
# [7] = target: Histone-lysine N-methyltransferase EZH1 (Homo sapiens, UniProt Q92800); test: Affinity On-target Cellular interaction: (Protein substrate methylation in WSU-DLCL2 cells) EUB0002228a EZH1; assay type: functional, cell-based, WSUDLCL2; parameters: mode of action Inhibitor, recommended concentration 1 uM
# [8] = target: T4, Sodium-dependent neutral amino acid transporter B(0)AT1 (Homo sapiens, UniProt Q695T7); test: Affinity On-target Cellular interaction: (Stable isotope uptake assay, MDCK cells) EUB0002537a SLC6A19; assay type: functional, cell-based; parameters: mode of action Inhibitor, recommended concentration 1 uM
# [9] = target: T4, Sodium-dependent neutral amino acid transporter B(0)AT1; test: Affinity On-target Cellular interaction: (Fluorescence imaging plate reader (FLIPR) membrane potential (FMP) assay, MDCK cells) EUB0002537a SLC6A19; assay type: functional, cell-based; parameters: mode of action Inhibitor, recommended concentration 1 uM
# [10] = target: T5, Oxysterols receptor LXR-alpha (Homo sapiens, UniProt Q13133); test: Affinity On-target Cellular interaction: (Reporter gene assay (HEK293T cells)) EUB0001482aCl NR1H3; assay type: functional, cell-based, HEK-293T; parameters: mode of action Agonist, recommended concentration 10 uM
# T5 sequence (Q13133 whole entry): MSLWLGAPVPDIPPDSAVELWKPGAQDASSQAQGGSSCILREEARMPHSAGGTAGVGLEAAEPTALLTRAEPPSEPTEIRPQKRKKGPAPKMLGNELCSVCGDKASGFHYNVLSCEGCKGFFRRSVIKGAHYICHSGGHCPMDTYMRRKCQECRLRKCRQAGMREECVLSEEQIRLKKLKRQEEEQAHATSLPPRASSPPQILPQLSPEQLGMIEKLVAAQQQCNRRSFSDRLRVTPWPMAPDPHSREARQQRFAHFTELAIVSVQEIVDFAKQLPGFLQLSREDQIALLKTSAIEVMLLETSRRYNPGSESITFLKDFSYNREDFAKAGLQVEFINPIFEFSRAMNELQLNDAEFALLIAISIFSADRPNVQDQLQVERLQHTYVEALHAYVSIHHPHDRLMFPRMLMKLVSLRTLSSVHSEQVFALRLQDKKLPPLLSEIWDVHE
# [11] = target: T6, Oxysterols receptor LXR-beta (Homo sapiens, UniProt P55055); test: Affinity On-target Cellular interaction: (Reporter gene assay (HEK293T cells)) EUB0001482aCl NR1H2; assay type: functional, cell-based, HEK-293T; parameters: mode of action Agonist, recommended concentration 10 uM
# T6 sequence (P55055 whole entry): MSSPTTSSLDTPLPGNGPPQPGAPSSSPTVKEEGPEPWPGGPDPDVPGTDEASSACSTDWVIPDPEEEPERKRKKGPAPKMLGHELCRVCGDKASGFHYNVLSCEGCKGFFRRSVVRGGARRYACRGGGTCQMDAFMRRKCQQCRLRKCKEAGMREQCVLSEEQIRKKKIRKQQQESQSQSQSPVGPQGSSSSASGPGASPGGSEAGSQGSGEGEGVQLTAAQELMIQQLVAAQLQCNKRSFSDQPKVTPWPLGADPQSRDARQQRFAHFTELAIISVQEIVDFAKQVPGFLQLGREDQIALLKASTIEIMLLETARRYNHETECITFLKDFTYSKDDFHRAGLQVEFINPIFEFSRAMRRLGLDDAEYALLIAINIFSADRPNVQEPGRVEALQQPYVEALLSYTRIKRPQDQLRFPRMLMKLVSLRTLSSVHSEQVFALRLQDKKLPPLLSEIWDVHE
# [12] = target: Thyroid hormone receptor beta (Homo sapiens, UniProt P10828); test: Affinity On-target Cellular interaction: (Reporter gene assay (HEK293T cells)) EUB0002355a THRB; assay type: functional, cell-based, HEK-293T; parameters: mode of action Antagonist, recommended concentration 3 uM
# Bile acid receptor = Bile acid receptor (Homo sapiens, UniProt Q96RI1); test: Affinity On-target Cellular interaction: (Reporter gene assay (HEK293T cells)) EUB0001168a NR1H4; assay type: functional, cell-based, HEK-293T; parameters: mode of action Agonist, recommended concentration 1 uM
# [13] = target: T1, Sodium- and chloride-dependent glycine transporter 1; test: Affinity On-target Cellular interaction: (Inhibition of [14C]glycine uptake in human neuroblastoma cells transfected with SLC6A9) EUB0002626aCl SLC6A9; assay type: functional, cell-based, BE(2)-C; parameters: mode of action Inhibitor, recommended concentration 1 uM
# [14] = target: Triacylglycerol hydrolase DDHD2 (Homo sapiens, UniProt O94830); test: Affinity On-target Cellular interaction: (Inhibition of DDHD2 in HEK293T cells measured by competitive activity-based protein profiling) EUB0002612a DDHD2; assay type: functional, cell-based, HEK-293T; parameters: mode of action Inhibitor, recommended concentration 1 uM
# [15] = target: Monoacylglycerol lipase ABHD6 (Homo sapiens, UniProt Q9BV23)
# Monoacylglycerol lipase ABHD6, sequence (Q9BV23 whole entry): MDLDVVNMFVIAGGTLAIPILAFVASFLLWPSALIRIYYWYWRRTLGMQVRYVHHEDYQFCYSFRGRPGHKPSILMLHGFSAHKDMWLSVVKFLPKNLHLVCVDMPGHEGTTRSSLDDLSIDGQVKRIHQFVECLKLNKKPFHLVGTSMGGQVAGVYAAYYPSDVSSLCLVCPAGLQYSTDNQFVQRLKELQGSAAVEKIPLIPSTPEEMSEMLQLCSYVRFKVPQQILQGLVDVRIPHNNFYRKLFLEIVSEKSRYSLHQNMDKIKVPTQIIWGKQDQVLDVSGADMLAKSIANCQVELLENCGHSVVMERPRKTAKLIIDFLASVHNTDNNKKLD
# T4 sequence (Q695T7 whole entry): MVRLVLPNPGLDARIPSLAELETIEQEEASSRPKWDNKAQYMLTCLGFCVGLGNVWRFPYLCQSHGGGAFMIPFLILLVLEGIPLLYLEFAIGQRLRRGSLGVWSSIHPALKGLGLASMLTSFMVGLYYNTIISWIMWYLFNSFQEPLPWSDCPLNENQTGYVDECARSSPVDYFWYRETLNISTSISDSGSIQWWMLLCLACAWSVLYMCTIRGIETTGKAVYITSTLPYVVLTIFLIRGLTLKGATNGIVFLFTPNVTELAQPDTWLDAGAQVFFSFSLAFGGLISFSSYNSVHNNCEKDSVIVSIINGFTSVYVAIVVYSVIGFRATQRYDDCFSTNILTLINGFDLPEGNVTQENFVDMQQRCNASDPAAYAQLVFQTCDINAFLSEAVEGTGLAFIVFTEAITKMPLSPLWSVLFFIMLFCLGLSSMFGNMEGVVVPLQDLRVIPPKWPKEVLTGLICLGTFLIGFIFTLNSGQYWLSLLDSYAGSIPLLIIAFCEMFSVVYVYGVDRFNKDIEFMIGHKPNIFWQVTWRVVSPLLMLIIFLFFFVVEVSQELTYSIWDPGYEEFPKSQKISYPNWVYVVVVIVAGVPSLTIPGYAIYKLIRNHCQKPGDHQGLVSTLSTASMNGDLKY
# T1 sequence (P48067 whole entry): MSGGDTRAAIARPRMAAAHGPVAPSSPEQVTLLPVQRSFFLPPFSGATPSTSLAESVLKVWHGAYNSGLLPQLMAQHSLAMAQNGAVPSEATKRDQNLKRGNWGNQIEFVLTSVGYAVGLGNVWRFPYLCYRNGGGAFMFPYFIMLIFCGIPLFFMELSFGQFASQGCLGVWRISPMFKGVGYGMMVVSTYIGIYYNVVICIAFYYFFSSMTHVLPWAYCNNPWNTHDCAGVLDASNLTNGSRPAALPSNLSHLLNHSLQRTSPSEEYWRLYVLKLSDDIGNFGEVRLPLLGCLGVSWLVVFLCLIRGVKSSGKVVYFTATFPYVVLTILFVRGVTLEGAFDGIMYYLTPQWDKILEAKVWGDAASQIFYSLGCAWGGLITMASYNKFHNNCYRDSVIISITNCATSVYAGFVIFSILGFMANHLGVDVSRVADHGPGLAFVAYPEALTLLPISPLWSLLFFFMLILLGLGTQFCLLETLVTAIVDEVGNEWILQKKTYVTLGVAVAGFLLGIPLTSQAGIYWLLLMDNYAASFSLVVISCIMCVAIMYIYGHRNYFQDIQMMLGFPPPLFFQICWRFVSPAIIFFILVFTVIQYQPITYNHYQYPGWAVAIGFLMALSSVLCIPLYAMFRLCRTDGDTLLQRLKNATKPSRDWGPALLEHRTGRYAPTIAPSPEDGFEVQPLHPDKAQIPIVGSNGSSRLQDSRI
# Triacylglycerol hydrolase DDHD2, sequence (O94830 whole entry): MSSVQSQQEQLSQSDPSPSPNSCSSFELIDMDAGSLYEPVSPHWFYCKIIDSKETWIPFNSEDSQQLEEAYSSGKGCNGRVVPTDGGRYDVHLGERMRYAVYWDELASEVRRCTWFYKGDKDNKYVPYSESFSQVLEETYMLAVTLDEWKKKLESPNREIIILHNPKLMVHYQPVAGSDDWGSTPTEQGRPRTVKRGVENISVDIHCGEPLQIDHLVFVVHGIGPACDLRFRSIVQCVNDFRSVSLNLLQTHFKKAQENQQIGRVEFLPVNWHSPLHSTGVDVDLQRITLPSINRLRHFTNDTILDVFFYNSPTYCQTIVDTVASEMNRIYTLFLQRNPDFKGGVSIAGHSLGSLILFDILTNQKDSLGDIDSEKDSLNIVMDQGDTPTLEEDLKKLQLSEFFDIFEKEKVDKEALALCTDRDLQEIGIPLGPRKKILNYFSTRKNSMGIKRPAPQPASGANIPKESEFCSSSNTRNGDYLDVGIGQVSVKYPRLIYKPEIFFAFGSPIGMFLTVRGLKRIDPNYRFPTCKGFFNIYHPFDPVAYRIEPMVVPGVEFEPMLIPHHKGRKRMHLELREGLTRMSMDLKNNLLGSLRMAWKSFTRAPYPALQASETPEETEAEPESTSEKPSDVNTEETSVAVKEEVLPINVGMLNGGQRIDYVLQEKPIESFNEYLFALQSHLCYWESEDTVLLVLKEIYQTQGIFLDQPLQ
# Poly [ADP-ribose] polymerase 1, sequence (P09874 whole entry): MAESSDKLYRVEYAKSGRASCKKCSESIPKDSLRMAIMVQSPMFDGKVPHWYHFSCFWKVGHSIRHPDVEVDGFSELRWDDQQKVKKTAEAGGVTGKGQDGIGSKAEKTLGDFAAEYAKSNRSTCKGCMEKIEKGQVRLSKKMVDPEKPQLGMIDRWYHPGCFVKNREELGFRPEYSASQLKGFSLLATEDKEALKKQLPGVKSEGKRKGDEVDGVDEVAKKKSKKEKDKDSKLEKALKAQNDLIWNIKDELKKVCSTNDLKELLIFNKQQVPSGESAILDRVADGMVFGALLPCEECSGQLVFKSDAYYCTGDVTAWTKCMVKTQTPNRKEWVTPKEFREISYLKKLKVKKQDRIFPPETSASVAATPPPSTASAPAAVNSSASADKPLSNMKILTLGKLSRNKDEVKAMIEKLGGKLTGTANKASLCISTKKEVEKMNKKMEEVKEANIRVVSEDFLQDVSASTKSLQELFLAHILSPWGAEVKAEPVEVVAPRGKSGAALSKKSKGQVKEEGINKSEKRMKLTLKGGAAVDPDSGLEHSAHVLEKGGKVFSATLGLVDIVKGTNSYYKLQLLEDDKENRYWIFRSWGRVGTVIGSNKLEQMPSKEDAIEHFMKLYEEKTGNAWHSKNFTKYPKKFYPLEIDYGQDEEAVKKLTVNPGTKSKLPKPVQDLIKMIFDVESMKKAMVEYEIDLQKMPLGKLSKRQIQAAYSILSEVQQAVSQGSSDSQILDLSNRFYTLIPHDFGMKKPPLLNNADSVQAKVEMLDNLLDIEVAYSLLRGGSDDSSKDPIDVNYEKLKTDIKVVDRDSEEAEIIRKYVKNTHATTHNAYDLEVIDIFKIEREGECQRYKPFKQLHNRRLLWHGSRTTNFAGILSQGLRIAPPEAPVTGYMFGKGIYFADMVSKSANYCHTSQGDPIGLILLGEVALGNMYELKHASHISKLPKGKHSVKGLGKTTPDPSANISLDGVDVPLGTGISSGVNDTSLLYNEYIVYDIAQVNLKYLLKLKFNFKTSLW
# Nuclear receptor subfamily 1 group I member 2, sequence (O75469 whole entry): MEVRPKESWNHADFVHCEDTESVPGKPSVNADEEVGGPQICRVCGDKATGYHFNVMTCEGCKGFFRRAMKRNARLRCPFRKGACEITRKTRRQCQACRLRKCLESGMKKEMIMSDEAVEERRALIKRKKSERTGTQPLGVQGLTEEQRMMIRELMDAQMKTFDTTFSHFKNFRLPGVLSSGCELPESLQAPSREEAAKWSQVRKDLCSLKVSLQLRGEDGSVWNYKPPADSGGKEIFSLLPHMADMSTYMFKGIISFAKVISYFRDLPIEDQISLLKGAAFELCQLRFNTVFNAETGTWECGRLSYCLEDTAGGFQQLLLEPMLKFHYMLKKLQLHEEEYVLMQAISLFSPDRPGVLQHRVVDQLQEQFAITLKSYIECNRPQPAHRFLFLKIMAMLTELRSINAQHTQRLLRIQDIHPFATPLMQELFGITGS
# Bile acid receptor, sequence (Q96RI1 whole entry): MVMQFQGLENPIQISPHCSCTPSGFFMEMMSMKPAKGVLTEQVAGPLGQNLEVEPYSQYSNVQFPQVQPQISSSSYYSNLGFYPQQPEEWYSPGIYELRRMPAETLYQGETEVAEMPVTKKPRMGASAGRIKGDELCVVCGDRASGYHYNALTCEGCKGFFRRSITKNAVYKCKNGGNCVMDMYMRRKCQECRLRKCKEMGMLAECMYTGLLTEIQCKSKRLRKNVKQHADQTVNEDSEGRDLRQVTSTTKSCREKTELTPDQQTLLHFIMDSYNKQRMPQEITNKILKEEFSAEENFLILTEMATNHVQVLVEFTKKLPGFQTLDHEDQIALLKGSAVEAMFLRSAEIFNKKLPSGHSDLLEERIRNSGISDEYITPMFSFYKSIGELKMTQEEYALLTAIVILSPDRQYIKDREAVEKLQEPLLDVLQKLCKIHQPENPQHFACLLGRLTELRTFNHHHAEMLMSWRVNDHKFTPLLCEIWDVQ
# Nuclear receptor ROR-alpha, sequence (P35398 whole entry): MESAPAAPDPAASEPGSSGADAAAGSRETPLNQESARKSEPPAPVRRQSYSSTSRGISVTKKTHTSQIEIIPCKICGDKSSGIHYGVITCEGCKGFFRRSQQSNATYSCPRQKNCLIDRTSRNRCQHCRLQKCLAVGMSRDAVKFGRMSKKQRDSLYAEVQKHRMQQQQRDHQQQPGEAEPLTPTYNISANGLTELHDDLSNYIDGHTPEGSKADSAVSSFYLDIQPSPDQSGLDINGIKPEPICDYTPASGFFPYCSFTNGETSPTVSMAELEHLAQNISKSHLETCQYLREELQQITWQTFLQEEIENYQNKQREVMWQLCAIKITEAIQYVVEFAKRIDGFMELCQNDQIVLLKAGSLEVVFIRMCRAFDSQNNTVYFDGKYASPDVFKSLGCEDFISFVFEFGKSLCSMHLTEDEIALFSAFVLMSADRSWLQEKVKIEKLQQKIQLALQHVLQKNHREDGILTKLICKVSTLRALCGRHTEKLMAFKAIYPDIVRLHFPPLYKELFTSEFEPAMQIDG
compound,measurement,setting,value
O=c1[nH]c2ccccc2n1CCCN1CCN(C(c2ccccc2)c2ccccc2)CC1 [OXATOMIDE],pEC50,[1],5.22
C[C@@H](Oc1ccc(S(C)(=O)=O)cc1C(=O)N1C[C@@H]2C[C@]2(c2cc(C(F)(F)F)on2)C1)C(F)(F)F [ICLEPERTIN],pIC50,[2],8.30
CNCc1ccc(-c2cc3cc(F)cc(C(N)=O)c3o2)cc1,pIC50,[3],7.16
O=S(=O)(Nc1ccc(C(O)(C(F)(F)F)C(F)(F)F)cc1)c1cccs1,pIC50,[4],5.49
same,pIC50,[5],5.82
same,pIC50,[6],6.30
CCN(c1cc(C#CCN2CCOCC2)cc(C(=O)NCc2c(C)cc(C)[nH]c2=O)c1C)[C@H]1CC[C@H](N(C)CCOC)CC1,pIC50,[7],> 7.00
CCNC(=O)/C=C/c1cccc(Br)c1 [CINROMIDE],pIC50,[8],6.43
same,pIC50,[9],6.55
C[C@H](CCOc1cccc(CC(=O)O)c1)N(Cc1cccc(C(F)(F)F)c1Cl)CC(c1ccccc1)c1ccccc1,pEC50,[10],5.48
same,pEC50,[11],5.54
Cc1oc2ccccc2c1Cc1cc(I)c(OCC(=O)O)c(I)c1,pIC50,[12],5.70
O=C(O)c1ccnc(N2CC(O)(c3ccc(OCc4c(-c5c(Cl)cccc5Cl)noc4C4CC4)cc3Cl)C2)c1 [CILOFEXOR],pEC50,Bile acid receptor,7.40
CN(CCOc1ccc(-c2ccc3c(c2)OCO3)cc1C(C)(C)C)CC(=O)O,pIC50,[13],7.80
O=C(N(CCc1ccccc1)C1CCCCC1)n1ncc(-c2ccc(OC(F)(F)F)cc2)n1,pIC50,[14],8.44
O=C(c1cccc(-c2ccc(-c3cn(C(=O)N4CCCCC4c4ccccc4)nn3)cc2)c1)N1CCCCC1 (stereo unspecified),pIC50,[15],9.68
